Tests used:
[1] = system: cortical infarct volume after middle cerebral artery occlusion; experiment: Permanent focal ischemia, middle cerebral artery occlusion (MCAO model); format: in vivo, spontaneously hypertensive rat; settings: 0.001 mg/kg intravenous single bolus 30 minutes after MCAO; vs vehicle-treated control; infarct measured 24 hours after MCAO
Source text: To determine the ability of these compounds to reduce cell loss resulting from neuronal ischemia, a standard rodent model of permanent focal ischemia, involving occlusion of the middle cerebral artery in the spontaneously hypertensive rat (MCAO model) was employed [Tamura, A., et al., Journal of Cerebral Blood Flow and Metabolism, Volume 1, 53-60, (1981)].
Selected compounds have been evaluated in the focal stroke model involving permanent middle cerebral artery occlusion (MCAO) in the spontaneously hypertensive rat. This procedure results in a reliably large neocortical infarct volume that is measured by means of vital dye exclusion in serial slices through the brain 24 hours after MCAO. In the present test, compounds were administered using an intravenous route of administration at 30 minutes after occlusion.

[2] = system: cloned mammalian (mSlo or hSlo) BK channels; experiment: BK-mediated outward current in Xenopus oocytes, two-electrode voltage clamp; format: cell-based; settings: at 20 μM; expressed as percent increase over BK current in controls; IBTX-sensitive current; at least 5 oocytes
Procedure: The ability of compounds described in the present invention to open BK channels and increase whole-cell outward (K^+) BK-mediated currents was assessed under voltage-clamp conditions by determining their ability to increase cloned mammalian (mSlo or hSlo) BK-mediated outward current heterologously expressed in Xenopus oocytes [Butler, A., et al., Science, 261: 221-224 (1993); and Dworetzky, S. I., et al., Mol. Brain Res., 27: 189-193 (1994)]. The two BK constructs employed represent nearly structurally identical homologous proteins, and have proven to be pharmacologically identical in our tests. To isolate BK current from native (background, non-BK) current, the specific and potent BK channel-blocking toxin iberiotoxin (IBTX) [Galvez, A., et al., J. Biol. Chem., 265: 11083-11090 (1990)] was employed at a supramaximal concentration (50 nM). The relative contribution of BK channels current to total outward current was determined by subtraction of the current remaining in the presence of IBTX (non-BK current) from the current profiles obtained in all other experimental conditions (control, drug, and wash). […] All compounds were tested in at least 5 oocytes and are reported at the single concentration of 20 μM; the effect of the selected compounds of Formula I on BK current was expressed as the percent of control IBTX-sensitive current and is listed in Table I. Recordings were accomplished using standard two-electrode voltage clamp techniques [Stuhmer, W., et al., Methods in Enzymology, Vol. 207: 319-339 (1992)]; voltage-clamp protocols consisted of 500-750 ms duration step depolarizations from a holding potential of -60 mV to +140 mV in 20 mV steps. The experimental media (modified Barth's solution) consisted of (in mM): NaCl (88), NaHCO3 (2.4), KCl (1.0), HEPES (10), MgSO4 (0.82), Ca(NO3)2 (0.33), CaCl2 (0.41); pH 7.5.

`Nc1c(-c2cc(Cl)ccc2O)c2cc(C(F)(F)F)ccc2[nH]c1=O` [Example 2, 3-Amino-4-(5-chloro-2-hydroxyphenyl)-6-(trifluoromethyl)quinolin-2(1H)-one] was tested, and the “reduction of cortical infarct volume” value [1] was “about 14%” and the “BK Current” value [2] was “++ (++ = > 150%)”.
For `O=c1[nH]c2ccc(C(F)(F)F)cc2c(-c2cc(Cl)ccc2O)c1NS(=O)(=O)C(F)(F)F` [Example 5, N-[4-(5-Chloro-2-hydroxyphenyl)-2-oxo-6-(trifluoromethyl)-1H-quinolin-3-yl]trifluoromethanesulfonamide], the “BK Current” value [2] was “++ (++ = > 150%)”.
For `O=C(Nc1c(-c2cc(Cl)ccc2O)c2cc(C(F)(F)F)ccc2[nH]c1=O)c1ccccc1` [Example 10, N-[4-(5-Chloro-2-hydroxyphenyl)-2-oxo-6-(trifluoromethyl)-1H-quinolin-3-yl]benzamide], the “BK Current” value [2] was “+ (+ = 100-150%)”.
`Nc1c(-c2cc(Cl)ccc2O)c2ccccc2[nH]c1=O` [Example 14, 3-Amino-4-(5-chloro-2-hydroxyphenyl)quinolin-2(1H)-one] was tested, and the “BK Current” value [2] was “+ (+ = 100-150%)”.
`O=C(Nc1c(-c2cc(Cl)ccc2O)c2cc(C(F)(F)F)ccc2[nH]c1=O)OCc1ccccc1` [Example 17, N-[4-(5-Chloro-2-hydroxyphenyl)-2-oxo-6-(trifluoromethyl)-1H-quinolin-3-yl]aminocarboxylic acid, phenylmethyl ester] was tested, and the “BK Current” value [2] was “++ (++ = > 150%)”.
With `Nc1c(-c2cc(Cl)ccc2O)c2cc([N+](=O)[O-])ccc2[nH]c1=O` [Example 19, 3-Amino-4-(5-chloro-2-hydroxyphenyl)-6-nitroquinolin-2(1H)-one] the “BK Current” value [2] was “++ (++ = > 150%)”.
With `O=C(Nc1c(-c2cc(Cl)ccc2O)c2cc(C(F)(F)F)ccc2[nH]c1=O)c1ccc(O)cc1` [Example 29, N-[4-(5-Chloro-2-hydroxyphenyl)-2-oxo-6-(trifluoromethyl)-1H-quinolin-3-yl]-4-hydroxybenzamide] the “BK Current” value [2] was “+ (+ = 100-150%)”.
`COc1ccc(CC(=O)Nc2c(-c3cc(Cl)ccc3O)c3cc(C(F)(F)F)ccc3[nH]c2=O)cc1` [Example 32, N-[4-(5-Chloro-2-hydroxyphenyl)-2-oxo-6-(trifluoromethyl)-1H-quinolin-3-yl]-(4-methoxyphenyl)acetamide] was tested, and the “BK Current” value [2] was “+ (+ = 100-150%)”.
In the case of `Nc1c(-c2cc(Cl)ccc2O)c2cc(Cl)c(C(F)(F)F)cc2[nH]c1=O` [Example 43, 3-Amino-4-(5-chloro-2-hydroxyphenyl)-6-chloro-7-(trifluoromethyl)quinolin-2(1H)-one], the “BK Current” value [2] was “+ (+ = 100-150%)”.
`Nc1c(-c2cc(Cl)ccc2O)c2c(C(F)(F)F)c(Cl)ccc2[nH]c1=O` [Example 44, 3-Amino-4-(5-chloro-2-hydroxyphenyl)-6-chloro-5-(trifluoromethyl)quinolin-2(1H)-one] was tested, and the “BK Current” value [2] was “+ (+ = 100-150%)”.
In the case of `O=c1[nH]c2ccc(C(F)(F)F)cc2c(-c2cc(Cl)ccc2O)c1NS(=O)(=O)c1ccc([N+](=O)[O-])cc1` [Example 64, N-[4-(5-Chloro-2-hydroxyphenyl)-2-oxo-6-(trifluoromethyl)-1H-quinolin-3-yl]-4-nitrobenzene-sulfonamide], the “BK Current” value [2] was “++ (++ = > 150%)”.
`O=c1[nH]c2ccc(C(F)(F)F)cc2c(-c2cc(Cl)ccc2O)c1NS(=O)(=O)c1ccc(F)cc1` [Example 66, N-[4-(5-Chloro-2-hydroxyphenyl)-2-oxo-6-(trifluoromethyl)-1 H-quinolin-3-yl]-(4-fluorobenzene)sulfonamide] was tested, and the “BK Current” value [2] was “++ (++ = > 150%)”.
In the case of `Cn1c(=O)c(N)c(-c2cc(Cl)ccc2O)c2cc(C(F)(F)F)ccc21` [Example 68, 3-Amino-4-(5-chloro-2-hydroxy-phenyl)-1-methyl-6-(trifluoro-methyl)quinolin-2(1H)-one], the “BK Current” value [2] was “+ (+ = 100-150%)”.
In the case of `Nc1c(-c2ccc(O)c(Cl)c2)c2cc(C(F)(F)F)ccc2[nH]c1=O` [Example 71, 3-Amino-4-(3-chloro-4-hydroxy-phenyl)-6-(trifluoromethyl)quinolin-2(1H)-one], the “BK Current” value [2] was “+ (+ = 100-150%)”.

From patent US5972961A, “4-aryl-3-aminoquinoline-2-one derivatives as potassium channel modulators” (Bristol-Myers Squibb Company, priority 1998, dated 1999)
